Laboratory results as given in patent publication US20250136629A1, “SELF-ASSEMBLED NANOPARTICLES FOR PHOTOTHERMAL THERAPY” (The University of Hong Kong, priority 2023, published 2025).

Assay: Air stability of the complexes (observation)
Format: physicochemical

In the case of [Fe(II)-ppy-tpy-Cl] [Complex R], the air stability is reported as “slightly air-sensitive in both the solid and solution states”.
